Measured values published in PubChem BioAssay (NCI).
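Results reflect a 48-hour exposure of cells in 96-well plates to compound at five concentrations. GI50: concentration for 50% inhibition of growth. At the TGI there is no net growth.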

Tests used:
Assay in all cases: NCI anticancer screen, dose series, 48 h
SR leukemia = test system: SR leukemia
MOLT-4 leukemia = test system: MOLT-4 leukemia
HS 578T breast = test system: HS 578T breast
HOP-62 NSCLC = test system: HOP-62 NSCLC
OVCAR-5 ovarian = test system: OVCAR-5 ovarian
A498 renal = test system: A498 renal
NCI/ADR-RES ovarian = test system: NCI/ADR-RES ovarian
HL-60(TB) leukemia = test system: HL-60(TB) leukemia
SK-OV-3 ovarian = test system: SK-OV-3 ovarian
A549 NSCLC = test system: A549 NSCLC
SK-MEL-5 melanoma = test system: SK-MEL-5 melanoma
BT-549 breast = test system: BT-549 breast
M14 melanoma = test system: M14 melanoma
CAKI-1 renal = test system: CAKI-1 renal
LOX IMVI melanoma = test system: LOX IMVI melanoma
PC-3 prostate = test system: PC-3 prostate
DU-145 prostate = test system: DU-145 prostate
MCF7 breast = test system: MCF7 breast
HCT-116 colon = test system: HCT-116 colon
NCI-H460 lung = test system: NCI-H460 lung
SK-MEL-28 melanoma = test system: SK-MEL-28 melanoma
COLO 205 colon = test system: COLO 205 colon
K-562 leukemia = test system: K-562 leukemia
HOP-92 NSCLC = test system: HOP-92 NSCLC
ACHN renal = test system: ACHN renal
UO-31 renal = test system: UO-31 renal
SF-539 CNS = test system: SF-539 CNS
UACC-62 melanoma = test system: UACC-62 melanoma
SN12C renal = test system: SN12C renal
HT29 colon = test system: HT29 colon
786-0 renal = test system: 786-0 renal
SF-268 CNS = test system: SF-268 CNS
U251 CNS = test system: U251 CNS
CCRF-CEM leukemia = test system: CCRF-CEM leukemia
SK-MEL-2 melanoma = test system: SK-MEL-2 melanoma
NCI-H23 lung = test system: NCI-H23 lung
MDA-MB-435 = test system: MDA-MB-435
SNB-75 CNS = test system: SNB-75 CNS
SNB-19 CNS = test system: SNB-19 CNS
NCI-H226 lung = test system: NCI-H226 lung
OVCAR-3 ovarian = test system: OVCAR-3 ovarian
HCC-2998 colon = test system: HCC-2998 colon
NCI-H522 lung = test system: NCI-H522 lung
T-47D breast = test system: T-47D breast
UACC-257 melanoma = test system: UACC-257 melanoma
HCT-15 colon = test system: HCT-15 colon
MDA-MB-231 breast = test system: MDA-MB-231 breast
IGROV1 ovarian = test system: IGROV1 ovarian
KM12 colon = test system: KM12 colon
OVCAR-4 ovarian = test system: OVCAR-4 ovarian
SF-295 CNS = test system: SF-295 CNS
RXF 393 renal = test system: RXF 393 renal
TK-10 renal = test system: TK-10 renal
MALME-3M melanoma = test system: MALME-3M melanoma
OVCAR-8 ovarian = test system: OVCAR-8 ovarian
RPMI-8226 leukemia = test system: RPMI-8226 leukemia
SW-620 colon = test system: SW-620 colon
EKVX NSCLC = test system: EKVX NSCLC

## O=C1NC(=NCCc2ccccn2)S/C1=C\c1ccc2ncccc2c1
SR leukemia
  GI50: 4.21 µM
  TGI: 14 µM
MOLT-4 leukemia
  GI50: 8.04 µM
  TGI: 22.6 µM
HS 578T breast
  GI50: 9.79 µM
  TGI: > 20.2 µM
HOP-62 NSCLC
  GI50: 13.9 µM
  TGI: > 25 µM
OVCAR-5 ovarian
  GI50: > 22.3 µM
  TGI: > 25 µM
A498 renal
  GI50: 4.62 µM
  TGI: 21.1 µM
NCI/ADR-RES ovarian
  GI50: > 18.5 µM
  TGI: > 25 µM
HL-60(TB) leukemia
  GI50: 7.66 µM
  TGI: > 25 µM
SK-OV-3 ovarian
  GI50: 9.1 µM
  TGI: > 25 µM
A549 NSCLC
  GI50: 8.29 µM
  TGI: > 25 µM
SK-MEL-5 melanoma
  GI50: 10.8 µM
  TGI: > 25 µM
BT-549 breast
  GI50: 10.5 µM
  TGI: > 25 µM
M14 melanoma
  GI50: 12.7 µM
  TGI: > 25 µM
CAKI-1 renal
  GI50: 6.94 µM
  TGI: > 21.7 µM
LOX IMVI melanoma
  GI50: 13.3 µM
  TGI: > 25 µM
PC-3 prostate
  GI50: 15.1 µM
  TGI: > 25 µM
DU-145 prostate
  GI50: 11.7 µM
  TGI: > 25 µM
MCF7 breast
  GI50: 10.5 µM
  TGI: > 25 µM
HCT-116 colon
  GI50: 8.25 µM
  TGI: > 25 µM
NCI-H460 lung
  GI50: 8.27 µM
  TGI: > 25 µM
SK-MEL-28 melanoma
  GI50: 15.4 µM
  TGI: > 25 µM
COLO 205 colon
  GI50: 9.05 µM
  TGI: > 25 µM
K-562 leukemia
  GI50: 9.99 µM
  TGI: > 25 µM
HOP-92 NSCLC
  GI50: 9.33 µM
  TGI: > 25 µM
ACHN renal
  GI50: 8.2 µM
  TGI: > 25 µM
UO-31 renal
  GI50: 7.91 µM
  TGI: 24.3 µM
SF-539 CNS
  GI50: 6.68 µM
  TGI: > 25 µM
UACC-62 melanoma
  GI50: 9.73 µM
  TGI: > 25 µM
SN12C renal
  GI50: 9.33 µM
  TGI: > 25 µM
HT29 colon
  GI50: 13.8 µM
  TGI: > 25 µM
786-0 renal
  GI50: 16.8 µM
  TGI: > 25 µM
SF-268 CNS
  GI50: 11.4 µM
  TGI: > 25 µM
U251 CNS
  GI50: 9.23 µM
  TGI: > 25 µM
CCRF-CEM leukemia
  GI50: 10.6 µM
  TGI: > 25 µM
SK-MEL-2 melanoma
  GI50: 9.02 µM
  TGI: > 22.2 µM
NCI-H23 lung
  GI50: 11.1 µM
  TGI: > 25 µM
MDA-MB-435
  GI50: 9.59 µM
  TGI: > 25 µM
SNB-75 CNS
  GI50: 1.69 µM
  TGI: > 20.7 µM
SNB-19 CNS
  GI50: 11.1 µM
  TGI: > 25 µM
NCI-H226 lung
  GI50: 11 µM
  TGI: > 25 µM
OVCAR-3 ovarian
  GI50: 9.88 µM
  TGI: > 25 µM
HCC-2998 colon
  GI50: > 21.4 µM
  TGI: > 25 µM
NCI-H522 lung
  GI50: 9.02 µM
  TGI: > 22.6 µM
T-47D breast
  GI50: 11 µM
  TGI: > 25 µM
UACC-257 melanoma
  GI50: 15.4 µM
  TGI: > 25 µM
HCT-15 colon
  GI50: 7.2 µM
  TGI: > 25 µM
MDA-MB-231 breast
  GI50: 18.5 µM
  TGI: > 25 µM
IGROV1 ovarian
  GI50: 9.29 µM
  TGI: > 25 µM
KM12 colon
  GI50: 18.2 µM
  TGI: > 25 µM
OVCAR-4 ovarian
  GI50: 14.1 µM
  TGI: > 25 µM
SF-295 CNS
  GI50: > 16.1 µM
  TGI: > 25 µM
RXF 393 renal
  GI50: 8.97 µM
  TGI: > 25 µM
TK-10 renal
  GI50: 7.33 µM
  TGI: 24.5 µM
MALME-3M melanoma
  GI50: 18.1 µM
  TGI: > 25 µM
OVCAR-8 ovarian
  GI50: 12.6 µM
  TGI: > 25 µM
RPMI-8226 leukemia
  GI50: 13.1 µM
  TGI: > 25 µM
SW-620 colon
  GI50: 8.33 µM
  TGI: > 25 µM

## N#Cc1c(N/N=C\c2ccc(Cl)cc2)nc(N)nc1N1CCOCC1
SR leukemia
  GI50: 11.7 µM
  TGI: 28.9 µM
MOLT-4 leukemia
  GI50: 13.6 µM
  TGI: 34.4 µM
HS 578T breast
  GI50: 41.1 µM
  TGI: > 100 µM
HOP-62 NSCLC
  GI50: 86.6 µM
  TGI: > 100 µM
OVCAR-5 ovarian
  GI50: > 100 µM
  TGI: > 100 µM
A498 renal
  GI50: 25.5 µM
  TGI: 69.2 µM
NCI/ADR-RES ovarian
  GI50: 43.1 µM
  TGI: > 100 µM
HL-60(TB) leukemia
  GI50: 9.84 µM
  TGI: 27.2 µM
SK-OV-3 ovarian
  GI50: > 100 µM
  TGI: > 100 µM
A549 NSCLC
  GI50: 29.6 µM
  TGI: > 100 µM
EKVX NSCLC
  GI50: 93.9 µM
  TGI: > 100 µM
SK-MEL-5 melanoma
  GI50: 19 µM
  TGI: > 100 µM
BT-549 breast
  GI50: > 100 µM
  TGI: > 100 µM
M14 melanoma
  GI50: 67.4 µM
  TGI: > 100 µM
CAKI-1 renal
  GI50: 43.3 µM
  TGI: > 100 µM
LOX IMVI melanoma
  GI50: 21.6 µM
  TGI: 62.4 µM
PC-3 prostate
  GI50: 24.6 µM
  TGI: > 100 µM
DU-145 prostate
  GI50: 28.8 µM
  TGI: > 100 µM
MCF7 breast
  GI50: 77.3 µM
  TGI: > 100 µM
HCT-116 colon
  GI50: 29.7 µM
  TGI: > 100 µM
NCI-H460 lung
  GI50: 87.7 µM
  TGI: > 100 µM
SK-MEL-28 melanoma
  GI50: > 100 µM
  TGI: > 100 µM
COLO 205 colon
  GI50: 66.2 µM
  TGI: > 100 µM
K-562 leukemia
  GI50: 13 µM
  TGI: 32.3 µM
HOP-92 NSCLC
  GI50: 36.3 µM
  TGI: > 100 µM
ACHN renal
  GI50: 23.1 µM
  TGI: 92.6 µM
UO-31 renal
  GI50: 39.6 µM
  TGI: > 100 µM
SF-539 CNS
  GI50: 75.1 µM
  TGI: > 100 µM
UACC-62 melanoma
  GI50: 25.4 µM
  TGI: > 100 µM
SN12C renal
  GI50: 55.1 µM
  TGI: > 100 µM
HT29 colon
  GI50: 26.7 µM
  TGI: > 100 µM
786-0 renal
  GI50: 67.1 µM
  TGI: > 100 µM
SF-268 CNS
  GI50: > 100 µM
  TGI: > 100 µM
U251 CNS
  GI50: 40.4 µM
  TGI: > 100 µM
CCRF-CEM leukemia
  GI50: 25.8 µM
  TGI: 78.9 µM
SK-MEL-2 melanoma
  GI50: 99.2 µM
  TGI: > 100 µM
NCI-H23 lung
  GI50: 87.8 µM
  TGI: > 100 µM
MDA-MB-435
  GI50: 35 µM
  TGI: > 100 µM
SNB-75 CNS
  GI50: 57.3 µM
  TGI: > 100 µM
SNB-19 CNS
  GI50: > 100 µM
  TGI: > 100 µM
NCI-H226 lung
  GI50: 53.6 µM
  TGI: > 100 µM
OVCAR-3 ovarian
  GI50: 22.5 µM
  TGI: 60.5 µM
HCC-2998 colon
  GI50: 22 µM
  TGI: > 100 µM
NCI-H522 lung
  GI50: 32.5 µM
  TGI: > 100 µM
T-47D breast
  GI50: > 100 µM
  TGI: > 100 µM
UACC-257 melanoma
  GI50: 32.2 µM
  TGI: > 100 µM
HCT-15 colon
  GI50: 26.7 µM
  TGI: 97.3 µM
MDA-MB-231 breast
  GI50: 25.3 µM
  TGI: > 100 µM
IGROV1 ovarian
  GI50: 26 µM
  TGI: 97.4 µM
KM12 colon
  GI50: 36.1 µM
  TGI: > 100 µM
OVCAR-4 ovarian
  GI50: 94.4 µM
  TGI: > 100 µM
SF-295 CNS
  GI50: 33.2 µM
  TGI: > 100 µM
RXF 393 renal
  GI50: 15 µM
  TGI: > 100 µM
TK-10 renal
  GI50: 40.1 µM
  TGI: > 100 µM
OVCAR-8 ovarian
  GI50: 31.4 µM
  TGI: > 100 µM
RPMI-8226 leukemia
  GI50: 16.4 µM
  TGI: 44.3 µM
SW-620 colon
  GI50: 47.1 µM
  TGI: > 100 µM
